Experimental findings from patent US11072634B2, “Inhibitors of transglutaminases” (Zedira GmbH, priority 2016, dated 2021) are described below.

Test [1] deals with Htt-exon1-97Q transfected N2a-cells. In words: ELISA of huntingtin and isopeptide bonds in SDS-soluble and formic acid soluble cell extracts. The format is cell-based, mouse. The note with it: N2a Htt-exon1-97Q, 150 or 300 μM, both extracts. As for the experimental part: A) Detection of huntingtin (htt) in an ELISA-Assay. Microtiter plate wells were coated with SDS-soluble and formic acid solubilized extracts of Htt-exon1-97Q transfected N2a-cells grown in the presence of 150 and 300 μM TG2-inhibitor E22. Anti-Htt-antibody 1C2 (1:250, Millipore, MAB1574) was used as detection antibody, followed by a conventional ELISA-protocol.
B) Detection of isopeptide bonds in an ELISA-Assay. Microtiter plate wells were coated with SDS-soluble and formic acid solubilized extracts of Htt-exon1-97Q transfected N2a-cells grown in the presence of 150 and 300 μM TG2-inhibitor E22. Antibody A023 (1:200, Zedira) recognizing N^ε-(γ-L-glutamyl)-L-lysine-isopeptide was used as detection antibody, followed by a conventional ELISA-protocol. […]
SDS-soluble and formic acid soluble extracts were used subsequently for coating of 96-well micro-titer-plates. […] Extinction was measured at 450 nm in a plate reader device.
In order to analyze the effect of E22 on huntingtin aggregation and cross-linking, Htt-exon1-97Q transfected N2a-cells were grown in presence of 150 or 300 μM TG2-blacker E22. SDS-soluble and formic acid soluble extracts were generated and huntingtin and cross-links (isopeptide bonds) were determined in an ELISA-format as described above.

In test [2] the test system is Human hepatic stellate cell line LX-2. Description: Extracellular matrix protein deposition of LX-2 cells. The class given is cell-based. The conditions noted are these: LX-2, 100 μM and 200 μM, 12 days. As for the experimental part: B) Extracellular matrix protein deposition of homogenates from LX-2-cells grown in standard plastic 6-well plates in the presence of 0-200 μM E22 measured by the DC-protein-assay (BioRad, #5000111).
Human hepatic stellate cell line LX-2 was cultured on standard plastic 6 well plates in Dulbecco's Modified Eagle's Medium containing 100 μg/mL streptomycin, 100 units/ml penicillin, 2 mM glutamine, and 10% (v/v) fetal calf serum. E22 was added to a concentration of 0 μM, 100 μM and 200 μM. Cells were grown at 37° C. and 5% CO2 humidified atmosphere. Medium was exchanged every two days.

On to `CCCCCNC(=O)C(=O)CC[C@H](NC(=O)[C@@H]1CCCN1C(C)=O)C(=O)Nc1cccn(CC(=O)NCC(CC)CC)c1=O` [Compound E22, (S)-2-((S)-1-acetylpyrrolidine-2-carboxamido)-N1-(1-(2-(2-ethylbutylamino)-2-oxoethyl)-2-oxo-1,2-dihydropyridin-3-yl)-5-oxo-N6-pentylhexanediamide], for which, in test [1], the “protein cross-linking (isopeptide bonds)” value was “reduces protein cross-linking in a dose dependent manner”. Also, the “extracellular matrix deposition, of control” value in test [2] was “about 30%”.
